In ChEMBL document CHEMBL3352783, “A highly water soluble benzimidazole derivative useful for the treatment of fasciolosis” (Bioorg Med Chem Lett, 2014):
In brackets after ≈: the same amount, converted by molar mass.

Legend:
[1] = test system: Fasciola hepatica; assay: Antiparasitic activity against Fasciola hepatica assessed as mortality at 10 mg/L after 24 hrs relative to untreated control; type: functional
[2] = test system: Fasciola hepatica; assay: Antiparasitic activity against Fasciola hepatica infected in sheep assessed as reduction of eggs at 12 mg/kg, po; type: functional
[3] = test system: Fasciola hepatica; assay: Antiparasitic activity against Fasciola hepatica infected in sheep assessed as fluke reduction at 12 mg/kg, po; type: functional
[4] = test system: Fasciola hepatica; assay: Antiparasitic activity against Fasciola hepatica infected in sheep assessed as reduction of eggs at 4 mg/kg, sc; type: functional; conditions: route subcutaneous
[5] = Aqueous stability of the compound assessed as time duration showing >95% compound stability at pH 7 and room temperature by UV-HPLC; type: physicochemical; conditions: buffer
[6] = test system: Fasciola hepatica; assay: Antiparasitic activity against Fasciola hepatica assessed as mortality at 10 mg/L after 72 hrs relative to untreated control; type: functional
[7] = test system: Fasciola hepatica; assay: Antiparasitic activity against Fasciola hepatica assessed as mortality at 50 mg/L after 24 hrs relative to untreated control; type: functional
[8] = test system: Fasciola hepatica; assay: Antiparasitic activity against Fasciola hepatica infected in sheep assessed as fluke reduction at 4 mg/kg, intramuscular; type: functional
[9] = test system: Fasciola hepatica; assay: Antiparasitic activity against Fasciola hepatica assessed as mortality at 50 mg/L after 48 hrs relative to untreated control; type: functional
[10] = test system: Fasciola hepatica; assay: Antiparasitic activity against Fasciola hepatica assessed as mortality at 10 mg/L after 48 hrs relative to untreated control; type: functional
[11] = test system: Fasciola hepatica; assay: Antiparasitic activity against Fasciola hepatica assessed as mortality at 50 mg/L after 72 hrs relative to untreated control; type: functional
[12] = test system: Fasciola hepatica; assay: Antiparasitic activity against Fasciola hepatica infected in sheep assessed as reduction of eggs at 4 mg/kg, intramuscular; type: functional
[13] = test system: Fasciola hepatica; assay: Antiparasitic activity against Fasciola hepatica infected in sheep assessed as fluke reduction at 4 mg/kg, sc; type: functional; conditions: route subcutaneous
[14] = Aqueous solubility of the compound at pH 7 and 25 degC; type: physicochemical
[15] = test system: Fasciola hepatica; assay: Antiparasitic activity against 10 week old Fasciola hepatica infected in sheep assessed as reduction in worm burden at 15 mg/kg, po; type: functional

Row | Structure (SMILES) | Efficacy [1] | Efficacy [2] | Efficacy [3] | Efficacy [4] | Stability [5] | Efficacy [6] | Efficacy [7] | Efficacy [8] | Efficacy [9] | Efficacy [10] | Efficacy [11] | Efficacy [12] | Efficacy [13] | solubility [14] | Efficacy [15]
1 | CSc1nc2cc(Oc3cccc4ccccc34)c(Cl)cc2n1COP(=O)([O-])[O-].[Na+].[Na+] | 95.8% | 95.1% | 83.3% | 65.8% | > 26 h | 100% | 100% | 87.8% | 100% | 95.8% | 100% | 44.9% | 61.4% |  | 
2 | CSc1nc2cc(Cl)c(Oc3cccc(Cl)c3Cl)cc2[nH]1 [TRICLABENDAZOLE] | 100% |  |  |  | > 24 h | 100% | 100% |  | 100% | 100% | 100% |  |  | 0.2 µg/mL (≈ 0.556 µM) | 
3 | CSc1nc2cc(Oc3cccc4ccccc34)c(Cl)cc2[nH]1 |  |  |  |  | > 26 h |  |  |  |  |  |  |  |  |  | 86.9%
